Test results as given in patent US6555546B2, “Use of 5HT3 antagonists for promoting intestinal lavage” (Janssen Pharmaceutics, N.V., priority 1997, dated 2003).
Several values for one entry are separate records, joined by “and”; a condition that tells them apart may be missing. Equal entries are not always repeated. Where two headings read alike, the source gives them in different places.

Tests used:
[1] = tested on: Beagle dogs; experiment: MgSO4 induced intestinal lavage in dogs; format: in vivo, dog; conditions: Canis lupus familiaris; po, 1 hour before oral MgSO4 (200 ml); liquid stools within 4 hours; read-out: MgSO4 induced intestinal lavage ED50 (95% c.l.)
Description: (§1) Beagle dogs of both sexes and varying in body weight were used. During the experiments, the dogs were individually housed in cages. They were uniquely identified by an ear tattoo number (received at the time of weaning). The animals were fasted overnight but were given free access to fresh tap water via automatic drinking nipples in the back of the cage.
Beagle dogs (of both sexes and varying in body weight, 16 hours deprived from food) were orally pretreated with the test compound (0.5 ml/kg) and challenged 1 hour later with an oral administration of magnesium sulphate (MgSO4.7H2O, 64 g/l, 0.26 M; 200 ml). The onset of MgSO4-induced intestinal lavage was assessed over a period of 4 hours after challenge. Liquid stools within 4 hours occured almost never in control animals treated with distilled water (3.0% false positives; n>100) and were considered to reflect significant acceleration of the MgSO4-induced intestinal lavage. Doses in the active dose range were given to five animals each, tested in separate experimental sessions including solvent-treated control animals.

[2] = biological target: T1, 5HT3 receptor (Mus musculus, UniProt P23979); experiment: In vitro 5HT3 receptor binding with [3H]GR 65630
T1 construct: Cells were homogenized in tris.HCl buffer; endogenous in cells; host or cells: NxG 108CC15 (NG108-15) cell membranes
T1 sequence (P23979 24-489): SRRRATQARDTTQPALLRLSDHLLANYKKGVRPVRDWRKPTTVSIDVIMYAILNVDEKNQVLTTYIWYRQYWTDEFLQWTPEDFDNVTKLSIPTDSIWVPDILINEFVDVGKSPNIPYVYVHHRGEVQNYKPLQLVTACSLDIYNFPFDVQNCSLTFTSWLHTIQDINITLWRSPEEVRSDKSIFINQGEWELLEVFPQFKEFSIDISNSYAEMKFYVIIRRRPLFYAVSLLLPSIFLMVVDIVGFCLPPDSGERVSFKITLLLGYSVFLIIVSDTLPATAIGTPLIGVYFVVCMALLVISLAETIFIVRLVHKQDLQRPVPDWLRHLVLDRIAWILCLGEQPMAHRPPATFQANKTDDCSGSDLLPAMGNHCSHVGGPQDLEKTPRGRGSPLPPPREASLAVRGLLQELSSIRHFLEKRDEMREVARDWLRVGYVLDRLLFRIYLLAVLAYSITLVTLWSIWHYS
Description: The incubation was run for 60 minutes at 37° C. Labelled membranes were collected and […] by rapid filtration under suction over […] filters (presoaked in 0.1% polyethyleneimine for at least 1 hour) using a 40-well filtration manifold. […] All experiments were repeated independently at least two times. Radioactivity on the filters was counted in a Packard Tri-carb 1600CA liquid scintillation analyzer. Counting data were collected directly in a Macintosh SE personal computer and further transferred to a Macintosh II personal computer. Counting data from assays in the presence of a compound were automatically expressed as percent of total binding measured in the absence of test compound. Inhibition curves plotting percent of total binding versus the log concentrations of the test compound were automatically generated.

[3] = tested on: Beagle dogs; experiment: KleanPrep-induced intestinal lavage in dogs; format: in vivo, dog; conditions: for ED50: Canis lupus familiaris, oral pretreatment one hour earlier
Description: as §1
The dogs were orally pretreated with test compound or distilled water (0.5 ml/kg) and 1 hour later challenged by gavage with KleanPrep® solution. Dependent on the type of experiment, the KleanPrep® solution was administered more than once at 15 minutes intervals. The standard administration volume was 200 ml. The occurrence of liquid stools at 1, 2, 3, 4, 5 and 6 hours after the first administration of KleanPrep® was noted. The KleanPrep® solution consisted of polyethyleneglycol 3350 (59 g/l), sodium sulfate (5.685 g/l), sodium hydrogencarbonate (1.685 g/l), sodium chloride (1.465 g/l), potassium chloride (0.7425 g/l), aspartate (0.0494 g/l) and vanille (0.3291 g/l).
Each dose of the test compounds was given to 5 animals.

[4] = fourth experiment: 2×200 ml KleanPrep, relative to ED50 for within 4 hours

SMILES	ED50 [1]	Ki [2]	also measured
Cc1nccn1CC1CCc2c(c3ccccc3n2C)C1=O (racemic) [(±)-Ondansetron]	0.097 mg/kg	–	–
COc1cc(N)c(Cl)cc1C(=O)NC1CCN2CCCC1C2 (racemic) [(±)-Renzapride]	0.074 mg/kg	10 nM	–
COc1cc(N)c(Cl)cc1C(=O)NC1CN2CCC1CC2 (racemic) [(±)-Zacopride]	0.023 mg/kg	–	–
CO[C@@H]1CN(CCCNc2nccc(=O)[nH]2)CC[C@@H]1NC(=O)c1cc(Cl)c(N)c2c1OC(C)(C)C2 (relative stereo) [Compound A, (−)-cis-4-amino-5-chloro-2,3-dihydro-N-[1-[3-[(3,4-dihydro-4-oxo-2-pyrimidinyl)amino]propyl]-3-methoxy-4-piperidinyl]-2,2-dimethyl-7-benzofurancarboxamide]	0.0027 mg/kg	–	Ki ([2]; N×G 108CC15 cell membranes, [3H]GR 65630 2 nM, 60 min 37° C, logarithmic mean and 95% confidence limits, read-out: 5HT3 receptor Ki (95% c.l.)): 0.58 nM; ED50 ([3]; read-out: ED50 liquid stools within 1 hour, fourth experiment: 2×200 ml KleanPrep): 0.085 mg/kg; ED50 ([3]; fourth experiment: 2×200 ml KleanPrep, read-out: ED50 liquid stools within 4 hours): 0.0036 mg/kg; dose increment for liquid stools within 1 hour [3, 4]: 24 times; dose increment for liquid stools within 2 hours [3, 4]: 3 times; dose increment for liquid stools within 3 hours [3, 4]: 1.1 times; dogs displaying liquid stools within 2 hours after KleanPrep administration ([3]; second experiment: single 200 ml KleanPrep, 0.16 mg/kg p.o. one hour earlier): three out of five; dogs displaying first liquid stool within 2 hours after first administration of KleanPrep ([3]; third experiment: 4×200 ml KleanPrep at 15 minute intervals, 0.16 mg/kg p.o. one hour earlier): all five; time of first liquid stool after first administration of KleanPrep (individual dogs) ([3]; third experiment: 4×200 ml KleanPrep at 15 minute intervals, 0.16 mg/kg p.o. one hour earlier, 0.16 mg/kg): 38 min and 39 min and 42 min and 52 min and 77 min
CN1C2CCCC1CC(NC(=O)c1nn(C)c3ccccc13)C2 (stereo not drawn) [(endo)-Granisetron]	0.014 mg/kg	–	–
CN1[C@@H]2CC[C@H]1C[C@@H](OC(=O)c1c[nH]c3ccccc13)C2 [(endo)-Tropisetron]	0.074 mg/kg	–	–
Cn1cc(C(=O)[C@@H]2CCc3nc[nH]c3C2)c2ccccc21 [(−)-YM-060]	0.0012 mg/kg	0.14 nM	–
CC(C)n1c(=O)n(C(=O)N[C@H]2C[C@H]3CC[C@@H](C2)N3C)c2ccccc21 [BIMU-8]	0.016 mg/kg	0.29 nM	–
CN1[C@@H]2CC[C@H]1C[C@@H](OC(=O)c1cc(Cl)cc(Cl)c1)C2 [Bemesetron]	0.77 mg/kg	8 nM	–
CCn1c(=O)n(C(=O)OC2C[C@H]3CC[C@@H](C2)N3C)c2ccccc21 (stereo partly drawn) [DAU-6236]	0.049 mg/kg	6.6 nM	–
